Data taken from ChEMBL document CHEMBL3217737, “Discovery of a highly selective FLT3 kinase inhibitor from phenotypic cell viability profiling” (Medchemcomm, 2013).
Active and inactive are the calls of the source. No cut-off for these calls is given here.

Key:
[1] = biological target: Proto-oncogene tyrosine-protein kinase Src (Homo sapiens) (UniProt P12931); experiment: Inhibition of c-Src (unknown origin) at 10 uM assessed as residual enzyme activity
[2] = biological target: Hepatocyte growth factor receptor (Homo sapiens) (UniProt P08581); experiment: Inhibition of c-Met (unknown origin) at 10 uM assessed as residual enzyme activity
[3] = biological target: CDK1/Cyclin A (Homo sapiens) (UniProt P06493+P20248); experiment: Inhibition of CDK1/Cyclin A (unknown origin) at 10 uM assessed as residual enzyme activity; format: protein-complex assay
[4] = biological target: Aurora kinase A (Homo sapiens) (UniProt O14965); experiment: Inhibition of Aurora A (unknown origin) at 10 uM assessed as residual enzyme activity
[5] = biological target: Serine/threonine-protein kinase A-Raf (Homo sapiens) (UniProt P10398); experiment: Inhibition of ARAF (unknown origin) at 10 uM assessed as residual enzyme activity
[6] = biological target: Mitogen-activated protein kinase kinase kinase 5 (Homo sapiens) (UniProt Q99683); experiment: Inhibition of ASK1 (unknown origin) at 10 uM assessed as residual enzyme activity
[7] = biological target: ALK tyrosine kinase receptor (Homo sapiens) (UniProt Q9UM73); experiment: Inhibition of ALK (unknown origin) at 10 uM assessed as residual enzyme activity
[8] = biological target: Macrophage colony-stimulating factor 1 receptor (Homo sapiens) (UniProt P07333); experiment: Inhibition of FMS (unknown origin) at 10 uM assessed as residual enzyme activity
[9] = biological target: Receptor-type tyrosine-protein kinase FLT3 (Homo sapiens, UniProt P36888); experiment: Inhibition of FLT3 (unknown origin) by kinase hot spot assay
Sequence of Receptor-type tyrosine-protein kinase FLT3 (P36888 whole entry): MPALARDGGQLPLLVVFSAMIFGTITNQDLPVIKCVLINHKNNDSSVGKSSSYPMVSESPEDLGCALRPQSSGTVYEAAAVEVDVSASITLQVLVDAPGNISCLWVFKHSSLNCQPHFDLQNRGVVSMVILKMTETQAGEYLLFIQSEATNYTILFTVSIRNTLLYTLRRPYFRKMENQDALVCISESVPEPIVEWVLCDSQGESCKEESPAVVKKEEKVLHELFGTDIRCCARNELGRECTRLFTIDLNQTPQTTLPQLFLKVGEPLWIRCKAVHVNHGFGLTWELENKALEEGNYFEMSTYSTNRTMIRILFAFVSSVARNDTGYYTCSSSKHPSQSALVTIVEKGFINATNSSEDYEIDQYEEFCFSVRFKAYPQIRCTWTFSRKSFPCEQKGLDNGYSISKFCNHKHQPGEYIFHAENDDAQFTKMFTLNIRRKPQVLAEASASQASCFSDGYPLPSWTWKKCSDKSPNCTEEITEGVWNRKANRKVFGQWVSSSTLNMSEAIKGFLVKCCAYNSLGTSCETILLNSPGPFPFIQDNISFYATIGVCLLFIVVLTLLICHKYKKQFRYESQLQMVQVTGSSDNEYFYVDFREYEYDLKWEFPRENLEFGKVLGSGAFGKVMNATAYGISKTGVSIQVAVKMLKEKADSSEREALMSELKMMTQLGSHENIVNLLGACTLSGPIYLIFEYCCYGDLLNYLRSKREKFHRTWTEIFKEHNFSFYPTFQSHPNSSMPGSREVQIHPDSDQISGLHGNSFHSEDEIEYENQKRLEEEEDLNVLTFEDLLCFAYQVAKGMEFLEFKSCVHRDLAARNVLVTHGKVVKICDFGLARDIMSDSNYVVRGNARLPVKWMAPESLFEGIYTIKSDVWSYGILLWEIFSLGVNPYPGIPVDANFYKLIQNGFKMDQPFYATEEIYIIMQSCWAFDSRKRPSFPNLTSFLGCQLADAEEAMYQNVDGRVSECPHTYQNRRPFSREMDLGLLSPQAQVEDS

HL-60 = experiment: Inhibition of STAT5 phosphorylation in human HL60 cells at 0.1 to 10 uM after 12 hrs by Western blot method; format: cell-based
[10] = biological target: Receptor-type tyrosine-protein kinase FLT3 (Homo sapiens) (UniProt P36888); experiment: Inhibition of FLT3 in human MV4-11 cells assessed as reduction in STAT5 phosphorylation after 12 hrs by Western blot method; format: cell-based
Sequence of Receptor-type tyrosine-protein kinase FLT3 (Homo sapiens) (P36888 whole entry): as above

[11] = biological target: Receptor-type tyrosine-protein kinase FLT3 (Homo sapiens) (UniProt P36888); experiment: Inhibition of FLT3 in human MV4-11 cells assessed as reduction in ERK phosphorylation after 12 hrs by Western blot method; format: cell-based
MV4-11 [12] = experiment: Induction of apoptosis in human MV4-11 cells assessed as increase in cleaved caspase-3 level at 0.1 to 10 uM after 12 hrs by Western blot method; format: functional, cell-based
MV4-11 [13] = experiment: Induction of apoptosis in human MV4-11 cells assessed as increase in cleaved PARP level at 0.1 to 10 uM after 12 hrs by Western blot method; format: functional, cell-based
MV4-11 [14] = experiment: Induction of apoptosis in human MV4-11 cells assessed as caspase 3 cleavage at 0.1 to 10 uM after 12 hrs by Western blot method; format: functional, cell-based
[15] = Cytotoxicity against human U87MG cells assessed as cell viability at 1 uM after 24 hrs by WST1 assay; format: functional, U-87MG ATCC; conditions: U-87 MG, read-out: Activity
MDA-MB-231 = experiment: Cytotoxicity against human MDA-MB-231 cells assessed as cell viability at 1 uM after 24 hrs by WST1 assay; format: functional; conditions: MDA-MB-231, 24 h, read-out: Activity
MCF7 = experiment: Cytotoxicity against human MCF7 cells assessed as cell viability at 1 uM after 24 hrs by WST1 assay; format: functional; conditions: MCF7, 24 h, read-out: Activity
[16] = Cytotoxicity against mouse NIH/3T3 cells assessed as cell viability at 1 uM after 24 hrs by WST1 assay; format: cell-based, NIH3T3; conditions: read-out: Activity
[17] = biological target: Insulin receptor (Homo sapiens) (UniProt P06213); experiment: Inhibition of IR (unknown origin) at 10 uM assessed as residual enzyme activity
[18] = biological target: Fibroblast growth factor receptor 1 (Homo sapiens) (UniProt P11362); experiment: Inhibition of FGFR1 (unknown origin) at 10 uM assessed as residual enzyme activity
[19] = biological target: Vascular endothelial growth factor receptor 3 (Homo sapiens) (UniProt P35916); experiment: Inhibition of VEGFR3 (unknown origin) at 10 uM assessed as residual enzyme activity
[20] = biological target: Vascular endothelial growth factor receptor 2 (Homo sapiens) (UniProt P35968); experiment: Inhibition of VEGFR2 (unknown origin) at 10 uM assessed as residual enzyme activity
[21] = biological target: Vascular endothelial growth factor receptor 1 (Homo sapiens) (UniProt P17948); experiment: Inhibition of VEGFR1 (unknown origin) at 10 uM assessed as residual enzyme activity
[22] = biological target: Serine/threonine-protein kinase Nek4 (Homo sapiens) (UniProt P51957); experiment: Inhibition of STK2 (unknown origin) at 10 uM assessed as residual enzyme activity
Sequence of Serine/threonine-protein kinase Nek4 (Homo sapiens) (P51957 whole entry, looked up): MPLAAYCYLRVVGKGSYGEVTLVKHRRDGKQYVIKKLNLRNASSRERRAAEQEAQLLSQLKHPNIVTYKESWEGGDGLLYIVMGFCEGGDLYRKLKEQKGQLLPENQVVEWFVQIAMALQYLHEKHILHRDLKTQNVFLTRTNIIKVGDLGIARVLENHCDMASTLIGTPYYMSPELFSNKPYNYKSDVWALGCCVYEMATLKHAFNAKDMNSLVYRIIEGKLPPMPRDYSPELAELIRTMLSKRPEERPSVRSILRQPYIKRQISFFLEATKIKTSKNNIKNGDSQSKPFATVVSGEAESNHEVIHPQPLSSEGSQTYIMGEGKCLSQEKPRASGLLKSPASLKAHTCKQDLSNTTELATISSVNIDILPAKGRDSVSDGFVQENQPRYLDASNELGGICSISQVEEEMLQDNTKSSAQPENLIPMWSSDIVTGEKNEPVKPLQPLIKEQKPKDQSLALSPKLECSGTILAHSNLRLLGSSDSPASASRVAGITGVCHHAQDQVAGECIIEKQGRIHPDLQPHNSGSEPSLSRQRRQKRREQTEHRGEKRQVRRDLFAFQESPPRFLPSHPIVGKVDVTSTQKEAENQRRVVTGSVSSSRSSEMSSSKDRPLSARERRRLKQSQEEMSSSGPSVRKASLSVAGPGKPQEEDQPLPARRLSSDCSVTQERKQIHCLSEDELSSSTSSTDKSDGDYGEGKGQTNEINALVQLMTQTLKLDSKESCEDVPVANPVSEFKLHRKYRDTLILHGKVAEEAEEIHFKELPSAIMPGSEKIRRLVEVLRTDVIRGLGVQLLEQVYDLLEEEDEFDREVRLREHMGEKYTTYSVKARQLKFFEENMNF

[23] = biological target: Serine/threonine-protein kinase PLK1 (Homo sapiens) (UniProt P53350); experiment: Inhibition of PLK1 (unknown origin) at 10 uM assessed as residual enzyme activity
Homo sapiens = organism: Homo sapiens; experiment: Inhibition of PKA (unknown origin) at 10 uM assessed as residual enzyme activity
[24] = biological target: Serine/threonine-protein kinase PAK 1 (Homo sapiens) (UniProt Q13153); experiment: Inhibition of PAK1 (unknown origin) at 10 uM assessed as residual enzyme activity
[25] = biological target: Mitogen-activated protein kinase 14 (Homo sapiens) (UniProt Q16539); experiment: Inhibition of P38alpha (unknown origin) at 10 uM assessed as residual enzyme activity
Sequence of Mitogen-activated protein kinase 14 (Homo sapiens) (Q16539 whole entry): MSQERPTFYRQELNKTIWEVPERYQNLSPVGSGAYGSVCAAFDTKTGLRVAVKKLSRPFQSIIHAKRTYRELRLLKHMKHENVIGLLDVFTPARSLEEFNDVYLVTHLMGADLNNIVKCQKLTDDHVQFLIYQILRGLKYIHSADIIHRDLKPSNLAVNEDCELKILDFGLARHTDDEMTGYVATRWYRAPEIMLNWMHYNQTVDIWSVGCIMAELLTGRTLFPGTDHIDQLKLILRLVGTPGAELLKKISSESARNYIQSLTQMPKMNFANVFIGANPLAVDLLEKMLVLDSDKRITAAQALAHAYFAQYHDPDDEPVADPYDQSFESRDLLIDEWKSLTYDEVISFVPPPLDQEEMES

[26] = biological target: Dual specificity mitogen-activated protein kinase kinase 1 (Homo sapiens) (UniProt Q02750); experiment: Inhibition of MEK1 (unknown origin) at 10 uM assessed as residual enzyme activity
Sequence of Dual specificity mitogen-activated protein kinase kinase 1 (Homo sapiens) (Q02750 whole entry): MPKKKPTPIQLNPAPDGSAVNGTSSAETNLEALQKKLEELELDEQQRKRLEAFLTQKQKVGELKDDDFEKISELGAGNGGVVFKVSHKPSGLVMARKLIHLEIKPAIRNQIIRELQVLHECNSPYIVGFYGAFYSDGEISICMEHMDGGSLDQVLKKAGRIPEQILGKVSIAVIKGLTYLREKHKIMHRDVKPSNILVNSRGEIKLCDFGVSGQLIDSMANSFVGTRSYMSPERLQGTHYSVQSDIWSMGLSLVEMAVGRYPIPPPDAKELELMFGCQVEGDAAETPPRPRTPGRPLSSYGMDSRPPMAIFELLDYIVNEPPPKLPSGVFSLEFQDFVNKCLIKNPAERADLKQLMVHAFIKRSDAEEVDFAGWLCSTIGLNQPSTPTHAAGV

[27] = biological target: Serine/threonine-protein kinase STK11 (Homo sapiens) (UniProt Q15831); experiment: Inhibition of LKB1 (unknown origin) at 10 uM assessed as residual enzyme activity
[28] = biological target: Tyrosine-protein kinase Lyn (Homo sapiens) (UniProt P07948); experiment: Inhibition of LYN (unknown origin) at 10 uM assessed as residual enzyme activity
[29] = biological target: Tyrosine-protein kinase Lck (Homo sapiens) (UniProt P06239); experiment: Inhibition of LCK (unknown origin) at 10 uM assessed as residual enzyme activity
[30] = biological target: Platelet-derived growth factor receptor beta (Homo sapiens) (UniProt P09619); experiment: Inhibition of PDGFRbeta (unknown origin) at 10 uM assessed as residual enzyme activity
Sequence of Platelet-derived growth factor receptor beta (Homo sapiens) (P09619 whole entry): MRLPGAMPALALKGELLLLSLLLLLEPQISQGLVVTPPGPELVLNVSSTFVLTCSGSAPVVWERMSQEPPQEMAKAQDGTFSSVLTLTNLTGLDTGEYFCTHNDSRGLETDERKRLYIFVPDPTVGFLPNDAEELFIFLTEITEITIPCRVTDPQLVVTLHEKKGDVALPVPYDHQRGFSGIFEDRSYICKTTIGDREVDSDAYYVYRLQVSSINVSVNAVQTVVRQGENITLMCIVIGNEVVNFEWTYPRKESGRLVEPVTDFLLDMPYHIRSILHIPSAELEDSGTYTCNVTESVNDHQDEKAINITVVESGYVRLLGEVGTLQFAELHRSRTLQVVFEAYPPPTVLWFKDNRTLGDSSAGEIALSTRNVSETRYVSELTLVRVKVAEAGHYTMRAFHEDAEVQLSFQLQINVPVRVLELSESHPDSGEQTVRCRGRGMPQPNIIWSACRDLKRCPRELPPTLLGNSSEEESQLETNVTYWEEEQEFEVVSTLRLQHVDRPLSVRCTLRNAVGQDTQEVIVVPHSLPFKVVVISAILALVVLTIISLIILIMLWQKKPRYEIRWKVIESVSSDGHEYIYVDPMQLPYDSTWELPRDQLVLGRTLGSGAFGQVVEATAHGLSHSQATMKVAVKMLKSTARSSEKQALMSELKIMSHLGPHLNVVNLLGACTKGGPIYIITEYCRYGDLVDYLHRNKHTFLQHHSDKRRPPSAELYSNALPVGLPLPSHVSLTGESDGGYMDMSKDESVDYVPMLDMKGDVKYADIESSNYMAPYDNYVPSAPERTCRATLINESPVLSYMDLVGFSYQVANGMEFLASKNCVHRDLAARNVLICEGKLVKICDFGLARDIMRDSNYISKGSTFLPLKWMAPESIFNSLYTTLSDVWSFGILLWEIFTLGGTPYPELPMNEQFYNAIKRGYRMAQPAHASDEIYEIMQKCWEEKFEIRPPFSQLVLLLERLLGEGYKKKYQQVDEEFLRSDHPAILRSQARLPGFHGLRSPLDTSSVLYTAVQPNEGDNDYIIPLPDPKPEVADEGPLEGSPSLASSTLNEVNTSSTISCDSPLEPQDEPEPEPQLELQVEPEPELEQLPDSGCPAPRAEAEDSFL

[31] = biological target: Platelet-derived growth factor receptor alpha (Homo sapiens) (UniProt P16234); experiment: Inhibition of PDGFRalpha (unknown origin) at 10 uM assessed as residual enzyme activity
[32] = biological target: Focal adhesion kinase 1 (Homo sapiens) (UniProt Q05397); experiment: Inhibition of FAK (unknown origin) at 10 uM assessed as residual enzyme activity
[33] = biological target: Mitogen-activated protein kinase 1 (Homo sapiens) (UniProt P28482); experiment: Inhibition of ERK2 (unknown origin) at 10 uM assessed as residual enzyme activity
Sequence of Mitogen-activated protein kinase 1 (Homo sapiens) (P28482 whole entry): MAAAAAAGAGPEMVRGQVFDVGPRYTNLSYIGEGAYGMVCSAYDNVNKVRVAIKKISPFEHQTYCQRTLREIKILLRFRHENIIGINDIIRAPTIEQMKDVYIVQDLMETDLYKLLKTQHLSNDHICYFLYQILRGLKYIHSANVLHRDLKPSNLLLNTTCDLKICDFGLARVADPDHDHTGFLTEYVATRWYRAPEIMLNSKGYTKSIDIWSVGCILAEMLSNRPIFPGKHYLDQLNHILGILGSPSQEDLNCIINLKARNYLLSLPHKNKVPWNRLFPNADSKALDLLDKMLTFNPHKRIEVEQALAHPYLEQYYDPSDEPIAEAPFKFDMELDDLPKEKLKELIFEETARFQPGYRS

[34] = biological target: Mitogen-activated protein kinase 3 (Homo sapiens) (UniProt P27361); experiment: Inhibition of ERK1 (unknown origin) at 10 uM assessed as residual enzyme activity
Sequence of Mitogen-activated protein kinase 3 (Homo sapiens) (P27361 whole entry): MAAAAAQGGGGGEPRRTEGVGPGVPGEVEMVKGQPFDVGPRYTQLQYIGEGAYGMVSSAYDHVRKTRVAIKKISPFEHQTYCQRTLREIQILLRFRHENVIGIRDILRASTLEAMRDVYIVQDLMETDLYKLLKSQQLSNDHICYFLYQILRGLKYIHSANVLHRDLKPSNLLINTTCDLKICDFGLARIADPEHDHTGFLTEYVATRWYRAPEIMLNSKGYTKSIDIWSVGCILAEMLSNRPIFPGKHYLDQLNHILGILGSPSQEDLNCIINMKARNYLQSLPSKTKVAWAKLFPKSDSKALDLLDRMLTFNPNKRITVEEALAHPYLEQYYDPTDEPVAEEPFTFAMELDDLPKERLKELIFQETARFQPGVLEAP

[35] = biological target: Epidermal growth factor receptor (Homo sapiens) (UniProt P00533); experiment: Inhibition of EGFR (unknown origin) at 10 uM assessed as residual enzyme activity

Sequence of Proto-oncogene tyrosine-protein kinase Src (Homo sapiens) (P12931 2-536 limits assumed): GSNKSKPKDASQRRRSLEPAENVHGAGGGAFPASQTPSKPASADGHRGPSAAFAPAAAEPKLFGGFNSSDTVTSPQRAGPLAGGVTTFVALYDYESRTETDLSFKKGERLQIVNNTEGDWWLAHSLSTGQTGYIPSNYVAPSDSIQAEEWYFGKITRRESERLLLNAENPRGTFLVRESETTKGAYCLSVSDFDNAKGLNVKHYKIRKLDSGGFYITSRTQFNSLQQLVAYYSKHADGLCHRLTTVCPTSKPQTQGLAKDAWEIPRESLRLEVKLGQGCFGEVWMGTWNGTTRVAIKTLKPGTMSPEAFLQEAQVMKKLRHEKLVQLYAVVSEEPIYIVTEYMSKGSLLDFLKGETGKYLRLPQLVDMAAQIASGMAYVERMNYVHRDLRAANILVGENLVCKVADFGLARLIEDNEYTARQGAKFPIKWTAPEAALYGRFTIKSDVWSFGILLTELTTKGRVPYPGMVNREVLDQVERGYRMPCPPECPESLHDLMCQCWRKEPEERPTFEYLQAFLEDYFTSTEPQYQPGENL

## COc1ccc(-c2n[nH]c3ncc(-c4ccc(Cl)cc4N)cc23)cc1
[1]
  Activity: 78.7%
[2]
  Activity: 118%
[3]
  Activity: 97.4%
[4]
  Activity: 87.7%
[5]
  Activity: 77%
[6]
  Activity: 97.8%
[7]
  Activity: 96.5%
[8]
  Activity: 102%
[9]
  IC50: 1300 nM
HL-60
  inhibition: inactive
[10]
  inhibition: Dose-dependent effect
[11]
  inhibition: Dose-dependent effect
MV4-11 [12]
  Activity: Dose-dependent effect
MV4-11 [13]
  Activity: Dose-dependent effect
MV4-11 [14]
  Activity: Active
[15]
  viability at 1 µM: 89%
MDA-MB-231
  viability at 1 µM: 84%
MCF7
  viability at 1 µM: 86%
[16]
  viability at 24 h, 1 µM: 106%
[17]
  Activity: 95%
[18]
  Activity: 90.1%
[19]
  Activity: 101%
[20]
  Activity: 98.6%
[21]
  Activity: 90%
[22]
  Activity: 85.8%
[23]
  Activity: 108%
Homo sapiens
  Activity: 93%
[24]
  Activity: 98.9%
[25]
  Activity: 110%
[26]
  Activity: 102%
[27]
  Activity: 101%
[28]
  Activity: 86.6%
[29]
  Activity: 95.2%
[30]
  Activity: 96.3%
[31]
  Activity: 93.8%
[32]
  Activity: 96.8%
[33]
  Activity: 94%
[34]
  Activity: 95.4%
[35]
  Activity: 91.2%
